One test relates to NGF. Kind of test: NGF production in the central nervous system of normal rats by intraperitoneal injection (NGF content of brain tissue, ELISA). Format: in vivo, rat (Wistar male). The procedure: The derivative (A), e.g. R=Two H, R1 =H and R2 =n-propyl (hereinafter referred to as 4-n-propylcatechol), was administered to normal rats by intraperitoneal injection, and the effect was examined.
4-n-Propylcatechol was administered by intraperitoneal injection 4 times every other day in a dosage of 5 mg/kg. The rats were killed two days after the final administration. The NGF content of each parts in brain was measured. The content was compared with those of control group which was administered saline alone.
A variety of the derivative was administered three times every other day. The content of NGF in the forebrain after 48 hours and 7 days from the final administration was measured and illustrated in Table 7.
Wistar male rats (9-10-week old, 200-250 g of weight) were intraperitoneally injected with the test derivative in a volume of 0.5 ml as a saline solution, emulsion or suspension. Dose and administration times were the same as above. The rats were killed by a hard spinal blow two days after the final administration. Each parts of brain were dissected and subjected to the following treatment under ice cooling.
Each parts of brain were weighed and homogenized for 30 strokes by a Dounce type homogenizer in a homogenization buffer (0.1 M Tris-HCl, containing 2% bovine serum albumin fraction V, 2% gelatin, 1.0 M NaCl, 0.02% NaN3, 2 mM EDTA and 2.6 kiu/ml of aprotinin, pH 7.6) at a concentration of 10% (W/V) (only septum 5% (W/V)). Each homogenate was centrifuged at 100,000 xg for 10 minutes, and 50 μl of supernatant was added with the same amount of a dilution buffer (0.1 M Tris-HCl containing 2% bovine serum albumin fraction V, 0.05% NaN3 and 20 mM CaCl2, pH 7.6). Determination was conducted in accordance with a method of S. Furukawa et al. by using a high sensitivity ELISA system on 8-NGF which was described in J. Neurochem., 40, 734-744 (1983). Lower limit of determination is 0.25 pg/ml. Data are indicated as a mean value ±SE on the NGF content of tissue (pg/mg wet tissue) of five rats.
Background: ELISA stands for enzyme-linked immunosorbent assay.

Test [1] concerns production and secretion of NGF on L-M cells. The test is described as follows: Promoting action for the production and secretion of NGF on L-M cells of mouse (ELISA). To be noted: Mus musculus, 24 h, read-out: Ratio of NGF increase. Format: cell-based. The text has this:
Catecholamines have also been found in a relatively high concentration to accelerate these functions without being mediated by adrenergic receptors [Y. Furukawa et al., J. Biol. Chem., 261, 6039-6047 (1986)].
The compound having a high activity in Table 1, that is, the catechol derivative having a n-alkyl group in the 3 or 4 position on the ring has been observed an acute cell toxicity in higher concentrations. The toxicity was considered the result of two hydroxyl groups in the catechol structure. Then the hydroxyl groups were esterified or etherified and the resulting derivative was examined the effect on the activity for the production and secretion of NGF.
The experiment was performed according to the procedures of Y. Furukawa et al. which is described in J. Bis Chem., 261, 6039-6047 (1986).
The medium was cultured for 3 days at a temperature of 37° C. After completing the confluency (about 10^6 cells/well), the medium was changed to Medium 199 (0.5 ml/well) containing 0.5% bovine serum albumin (Fraction V, a product of Armour Co.). The sample of the derivative is contained in the medium at a prescribed concentration as illustrated in the Tables.

Test [2] deals with rats injected with kainic acid at basal forebrain. Kind of test: Promotion of recovery from retention deficits by repeated learning (passive avoidance). The settings on record: Table 9, i.p. 5 mg/kg before each trial. More on the design: key: latency in seconds to enter dark chamber, capped at 300 s. The class given is in vivo, rat (male Sprague-Dawley). As for the experimental part: Effects of the derivative on the behavioral parameters of rats injected with kainic acid at basal forebrain were characterized with regard to both prevention against deficits in retention of passive avoidance learning and promotion of recovery from damaged state by repeated learning.
Male Sprague-Dawley rats (9-10 weeks of age, 200-250 g of weight) were anesthetized with Nembutal (50 mg/kg, i.p.) and placed in a stereotaxic apparatus. Bilateral lesions of the ventral globus pallidus were made by direct stereotaxic application (0.7 mm posterior to bregma, 2.7 mm lateral to the midline, and 7.0 mm ventral to the brain surface) of 0.25 μg of kainic acid in 1 μl of PBS (pH 7.4) to prepare disordered models. Controls were sham-operated rats injected with PBS in place of kainic acid solution.
Passive avoidance procedures were performed by using a two chambered step-through passive avoidance apparatus with a guillotine door. A 3 mA scrambled shock was delivered to the dark floor grids for 3 seconds as a punishment. Habituation trial was conducted prior to the acquisition trial. Each rats were placed in the illuminated chamber and the guillotine door was raised after 10 seconds. As soon as the rats entered into the dark chamber, the door was lowered. The rats were removed after 10 seconds and returned to their home cages. […] The acquisition trial was performed similarly to the habituation trial. In the former case, a rat was placed in the illuminated room and the door was opened after 10 seconds. The door was shut immediately after the rat entered into the dark room, a scrambled foot shock was applied, and then the animal was removed. The latency to enter the dark chamber after opening the door was recorded for 300 seconds in the retention of passive avoidance. The latency exceeding 300 seconds was calculated as 300 seconds.
The promoting effects on the recovery by repeated training from the damaged state of retention were acessed by using 30 rats injected with kainic acid. Rats were subjected to the acquisition trial 10 days after the operation. The rats were equally divided into 3 groups after 24 hours and injected intrapenitroneally with 5 mg/kg of 4-n-propylcatechol and the derivative (A) (R=--CO--, R=H, R2 =n-propyl) respectively as a saline solution. The remaining 10 rats were intraperitoneally injected with saline alone. The first retention trial was carried out two days after the injection. Rats which entered into the dark chamber within 30 seconds were punished by the scrambled foot shock as a training. On the next day, all animals were administered again the same amount of test derivative or saline. These animals were subjected to the second retention trial two days after the second injection.
Retention trials, punishments and additional administrations were repeated as mentioned above four times in all.

[3] abbreviates: Table 6, i.p. 5 mg/kg, 4 times every other day.
The mark [4] stands for this setting: Table 6, i.p. 5 mg/kg, 4 times every other day, **P 0.01 vs saline.

“Also recorded” adds a separate entry of the source.

Regarding `CCCc1ccc(O)c(O)c1` [R = Two H, R1 = H, R2 = n-Propyl, 4-n-propylcatechol], the “NGF production in brain regions (in words)” value in the test on NGF is “marked activation of NGF production was observed in frontal cortex, hippocampus and olfactory bulb; also recorded: Significant increase in NGF level was also observed in the original region of cholinergic tracts”. In the test with NGF (setting [3]), the “NGF content, cerebellum” value was determined as 0.33 ± 0.16 pg/mg wet tissue and the “NGF content, striatum” value turned out to be 0.24 ± 0.04 pg/mg wet tissue. In the test with NGF (setting [4]), the “NGF content, NBM (nucleus basalis magnecellularis)” value was 1.69 ± 0.17 pg/mg wet tissue; the “NGF content, olfactory bulb” value came out at 1.70 ± 0.24 pg/mg wet tissue; the “NGF content, septum” value amounted to 1.39 ± 0.14 pg/mg wet tissue. Also, the “NGF content, hippocampus” value in the test with NGF (Table 6, i.p. 5 mg/kg, 4 times every other day, *P < 0.05 vs saline) is reported as 3.92 ± 0.63 pg/mg wet tissue. The “NGF content, frontal cortex” value in the test on NGF (Table 6, i.p. 5 mg/kg, 4 times every other day, two days after final administration, *P < 0.05 vs saline) is 2.14 ± 0.49 pg/mg wet tissue. Further, the “NGF content after 48 hr.” value in the test with NGF (Table 7, i.p., three times every other day, 48 hours after final administration) was 1.97 ± 0.41 pg/mg wet tissue of frontal co. In the test with NGF (Table 7, i.p., three times every other day, 7 days after final administration), the “NGF content after 7 days” value is 2.28 ± 0.29 pg/mg wet tissue of frontal co. For the same compound, in test [1], the fold induction at 30 µM was 10.1 ± 1.14 and the fold induction at 100 µM came out at 17.1 ± 2.7. Also, the “Mean latency, 1st retention trial” value in test [2] came out at 47 ± 16. In addition, in test [2] (**P < 0.01), the “Mean latency, 4th retention trial” value is 272 ± 14. Also, in test [2] (*P < 0.05), the “Mean latency, 2nd retention trial” value is 147 ± 29 and the “Mean latency, 3rd retention trial” value worked out at 201 ± 23.

The values are drawn from patent US5214034A, “Catechol derivatives, and preventive and remedial preparations for regressive disorders in the central nervous system containing the same” (priority 1986, dated 1993).
